Key:
[1] = test system: giant foxtail; assay: Test A pre-/postemergence herbicide test; type: in vivo, Setaria faberii
Procedure, shortened: (§1)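 Scoring was visual, relative to untreated controls, on a 0–100 scale after about 10 greenhouse days. Preemergence treatment used a directed soil spray over seeded loam/sand; postemergence treatment targeted one- to two-leaf plants of 2–10 cm.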

[2] = test system: pigweed; assay: Test A pre-/postemergence herbicide test; type: in vivo, Amaranthus retroflexus
Procedure, shortened: as §1

[3] = test system: crabgrass, large; assay: Test A pre-/postemergence herbicide test; type: in vivo, Digitaria sanguinalis
Procedure, shortened: as §1

[4] = test system: morningglory; assay: Test A pre-/postemergence herbicide test; type: in vivo, Ipomoea spp.
Procedure, shortened: as §1

[5] = test system: rice; assay: Test C flooded paddy test; type: in vivo, Oryza sativa; conditions: Flood
Excerpt: (§2) Plant species in the flooded paddy test consisted of rice (Oryza sativa), sedge, umbrella (small-flower umbrella sedge, Cyperus difformis), ducksalad (Heteranthera limosa), and barnyardgrass (Echinochloa crus-galli) grown to the 2-leaf stage for testing. At time of treatment, test pots were flooded to 3 cm above the soil surface, treated by application of test compounds directly to the paddy water, and then maintained at that water depth for the duration of the test. Treated plants and controls were maintained in a greenhouse for 13 to 15 days, after which time all species were compared to controls and visually evaluated. Plant response ratings, summarized in Table C, are based on a scale of 0 to 100 where 0 is no effect and 100 is complete control. A dash (-) response means no test result.

[6] = test system: velvetleaf; assay: Test A pre-/postemergence herbicide test; type: in vivo, Abutilon theophrasti
Procedure, shortened: as §1

[7] = test system: barnyardgrass; assay: Test A pre-/postemergence herbicide test; type: in vivo, Echinochloa crus-galli
Procedure, shortened: as §1

[8] = test system: wheat; assay: Test A pre-/postemergence herbicide test; type: in vivo, Triticum aestivum
Procedure, shortened: as §1

[9] = test system: ducksalad; assay: Test C flooded paddy test; type: in vivo, Heteranthera limosa; conditions: Flood
Excerpt: as §2

[10] = test system: barnyardgrass; assay: Test C flooded paddy test; type: in vivo, Echinochloa crus-galli; conditions: Flood
Excerpt: as §2

[11] = test system: corn; assay: Test A pre-/postemergence herbicide test; type: in vivo, Zea mays
Procedure, shortened: as §1

[12] = test system: sedge, umbrella; assay: Test C flooded paddy test; type: in vivo, Cyperus difformis; conditions: Flood
Excerpt: as §2

[13] = Postemergence, 125 g ai/ha, 0 to 100 scale, 0 no effect, 100 complete control
[14] = Postemergence, 500 g ai/ha, 0 to 100 scale (0 no effect, 100 complete control)
[15] = Preemergence, 125 g ai/ha, visual rating on 0 to 100 scale (0 no effect, 100 complete control)
[16] = preemergence, 500 g ai/ha, 0 to 100 scale
[17] = 31 g ai/ha, scale of 0 to 100 where 0 is no effect and 100 is complete control, 13 to 15 days
[18] = 62 g ai/ha, scale of 0 to 100 where 0 is no effect and 100 is complete control, 13 to 15 days
[19] = 125 g ai/ha, scale of 0 to 100 where 0 is no effect and 100 is complete control, 13 to 15 days
[20] = Postemergence, 1000 g ai/ha, 0 to 100 scale (0 no effect, 100 complete control)
[21] = Preemergence, 1000 g ai/ha, visual rating on 0 to 100 scale (0 no effect, 100 complete control), approx. 10 days

`O=C1NCC(c2cccc(F)c2)C1C(=O)Nc1ccccc1C(F)(F)F` (racemic) [Compound 2] was tested, and the “Plant response rating, Foxtail, Giant” value [1, 13] was 30, the “Plant response rating, Foxtail, Giant” value [1, 14] was 60 and the “Foxtail, Giant plant response rating” value [1, 15] was 90. For the same compound, the “Plant response rating, Foxtail, Giant” value [1, 16] was 90, the “Plant response rating, Pigweed” value [2, 14] was 0 and the “Pigweed plant response rating” value [2, 15] was 0. For the same compound, the “Plant response rating, Pigweed” value [2, 16] was 0, the “Plant response rating, Crabgrass, Large” value [3, 13] was 50 and the “Plant response rating, Crabgrass, Large” value [3, 14] was 70. The “Crabgrass, Large plant response rating” value [3, 15] was 90, the “Plant response rating, Crabgrass, Large” value [3, 16] was 90 and the “Plant response rating, Morningglory” value [4, 14] was 0. The “Morningglory plant response rating” value [4, 15] was 0, the “Plant response rating, Morningglory” value [4, 16] was 0 and the “Plant response rating, Rice” value [5, 17] was 0. For the same compound, the “Plant response rating, Rice” value [5, 18] was 0, the “Plant response rating, Rice” value [5, 19] was 0 and the “Plant response rating, Rice” value ([5]; 250 g ai/ha, scale 0 to 100) was 0. The “Plant response rating, Velvetleaf” value [6, 14] was 0, the “Velvetleaf plant response rating” value [6, 15] was 0 and the “Plant response rating, Velvetleaf” value [6, 16] was 0. The “Plant response rating, Barnyardgrass” value [7, 13] was 30, the “Plant response rating, Barnyardgrass” value [7, 14] was 60 and the “Barnyardgrass plant response rating” value [7, 15] was 30. The “Plant response rating, Barnyardgrass” value ([7]; preemergence, 500 g ai/ha, 0 to 100 scale (0 no effect, 100 complete control)) was 60, the “Plant response rating, Wheat” value [8, 14] was 0 and the “Wheat plant response rating” value [8, 15] was 0. The “Plant response rating, Wheat” value [8, 16] was 0, the “Plant response rating, Ducksalad” value [9, 17] was 0 and the “Plant response rating, Ducksalad” value [9, 18] was 0. The “Plant response rating, Ducksalad” value [9, 19] was 0, the “Plant response rating, Ducksalad” value ([9]; 250 g ai/ha, scale 0 to 100) was 0 and the “Plant response rating, Barnyardgrass” value [10, 17] was 0. The “Plant response rating, Barnyardgrass” value [10, 18] was 0, the “Plant response rating, Barnyardgrass” value [10, 19] was 0 and the “Plant response rating, Barnyardgrass” value ([10]; 250 g ai/ha, scale 0 to 100) was 0. For the same compound, the “Plant response rating, Corn” value [11, 13] was 0, the “Plant response rating, Corn” value [11, 14] was 0 and the “Corn plant response rating” value [11, 15] was 0. For the same compound, the “Plant response rating, Corn” value [11, 16] was 0, the “Plant response rating, Sedge, Umbrella” value [12, 17] was 0 and the “Plant response rating, Sedge, Umbrella” value [12, 18] was 0. The “Plant response rating, Sedge, Umbrella” value [12, 19] was 0 and the “Plant response rating, Sedge, Umbrella” value ([12]; 250 g ai/ha, scale 0 to 100) was 0.
In the case of `O=C1NCC(c2ccc(F)c(F)c2)C1C(=O)Nc1cccc(Cl)c1` (racemic) [Compound 18], the “Plant response rating, Foxtail, Giant” value [1, 20] is reported as 70, the “Plant response rating, Foxtail, Giant” value [1, 21] is reported as 80 and the “Plant response rating, Pigweed” value [2, 20] is reported as 0. For the same compound, the “Plant response rating, Pigweed” value [2, 21] was 0, the “Plant response rating, Crabgrass, Large” value [3, 20] was 70 and the “Plant response rating, Crabgrass, Large” value [3, 21] was 80. For the same compound, the “Plant response rating, Morningglory” value [4, 20] was 0, the “Plant response rating, Morningglory” value [4, 21] was 0 and the “Plant response rating, Rice” value [5, 17] was 0. The “Plant response rating, Rice” value [5, 18] was 0, the “Plant response rating, Rice” value [5, 19] was 0 and the “Plant response rating, Rice” value ([5]; 250 g ai/ha, scale 0 to 100) was 0. For the same compound, the “Plant response rating, Velvetleaf” value [6, 20] was 0, the “Plant response rating, Velvetleaf” value [6, 21] was 0 and the “Plant response rating, Barnyardgrass” value [7, 20] was 50. The “Plant response rating, Barnyardgrass” value [7, 21] was 80, the “Plant response rating, Wheat” value [8, 20] was 0 and the “Plant response rating, Wheat” value [8, 21] was 0. For the same compound, the “Plant response rating, Ducksalad” value [9, 17] was 0, the “Plant response rating, Ducksalad” value [9, 18] was 0 and the “Plant response rating, Ducksalad” value [9, 19] was 0. For the same compound, the “Plant response rating, Ducksalad” value ([9]; 250 g ai/ha, scale 0 to 100) was 0, the “Plant response rating, Barnyardgrass” value [10, 17] was 0 and the “Plant response rating, Barnyardgrass” value [10, 18] was 0. The “Plant response rating, Barnyardgrass” value [10, 19] was 0, the “Plant response rating, Barnyardgrass” value ([10]; 250 g ai/ha, scale 0 to 100) was 0 and the “Plant response rating, Corn” value [11, 20] was 0. The “Plant response rating, Corn” value [11, 21] was 0, the “Plant response rating, Sedge, Umbrella” value [12, 17] was 0 and the “Plant response rating, Sedge, Umbrella” value [12, 18] was 0. The “Plant response rating, Sedge, Umbrella” value [12, 19] was 0 and the “Plant response rating, Sedge, Umbrella” value ([12]; 250 g ai/ha, scale 0 to 100) was 0.
For `Cc1ccccc1NC(=O)C1C(=O)NCC1c1ccc(F)c(F)c1` (racemic) [Compound 19], the “Plant response rating, Foxtail, Giant” value [1, 20] was 80, the “Plant response rating, Foxtail, Giant” value [1, 21] was 90 and the “Plant response rating, Pigweed” value [2, 20] was 0. The “Plant response rating, Pigweed” value [2, 21] was 0, the “Plant response rating, Crabgrass, Large” value [3, 20] was 90 and the “Plant response rating, Crabgrass, Large” value [3, 21] was 90. The “Plant response rating, Morningglory” value [4, 20] was 0, the “Plant response rating, Morningglory” value [4, 21] was 0 and the “Plant response rating, Rice” value [5, 17] was 0. For the same compound, the “Plant response rating, Rice” value [5, 18] was 0, the “Plant response rating, Rice” value [5, 19] was 0 and the “Plant response rating, Rice” value ([5]; 250 g ai/ha, scale 0 to 100) was 0. The “Plant response rating, Velvetleaf” value [6, 20] was 10, the “Plant response rating, Velvetleaf” value [6, 21] was 0 and the “Plant response rating, Barnyardgrass” value [7, 20] was 90. The “Plant response rating, Barnyardgrass” value [7, 21] was 90, the “Plant response rating, Wheat” value [8, 20] was 30 and the “Plant response rating, Wheat” value [8, 21] was 0. The “Plant response rating, Ducksalad” value [9, 17] was 0, the “Plant response rating, Ducksalad” value [9, 18] was 0 and the “Plant response rating, Ducksalad” value [9, 19] was 0. The “Plant response rating, Ducksalad” value ([9]; 250 g ai/ha, scale 0 to 100) was 0, the “Plant response rating, Barnyardgrass” value [10, 17] was 0 and the “Plant response rating, Barnyardgrass” value [10, 18] was 0. The “Plant response rating, Barnyardgrass” value [10, 19] was 0, the “Plant response rating, Barnyardgrass” value ([10]; 250 g ai/ha, scale 0 to 100) was 0 and the “Plant response rating, Corn” value [11, 20] was 0. The “Plant response rating, Corn” value [11, 21] was 0, the “Plant response rating, Sedge, Umbrella” value [12, 17] was 0 and the “Plant response rating, Sedge, Umbrella” value [12, 18] was 0. For the same compound, the “Plant response rating, Sedge, Umbrella” value [12, 19] was 0 and the “Plant response rating, Sedge, Umbrella” value ([12]; 250 g ai/ha, scale 0 to 100) was 0.
`CS(=O)(=O)c1ccccc1NC(=O)C1C(=O)NCC1c1ccc(F)c(F)c1` (racemic) [Compound 21] was tested, and the “Plant response rating, Foxtail, Giant” value [1, 20] was 80, the “Plant response rating, Foxtail, Giant” value [1, 21] was 90 and the “Plant response rating, Pigweed” value [2, 21] was 40. The “Plant response rating, Crabgrass, Large” value [3, 20] was 80, the “Plant response rating, Crabgrass, Large” value [3, 21] was 90 and the “Plant response rating, Morningglory” value [4, 20] was 0. The “Plant response rating, Morningglory” value [4, 21] was 40, the “Plant response rating, Rice” value [5, 17] was 0 and the “Plant response rating, Rice” value [5, 18] was 0. The “Plant response rating, Rice” value [5, 19] was 0, the “Plant response rating, Rice” value ([5]; 250 g ai/ha, scale 0 to 100) was 0 and the “Plant response rating, Velvetleaf” value [6, 20] was 60. The “Plant response rating, Velvetleaf” value [6, 21] was 50, the “Plant response rating, Barnyardgrass” value [7, 20] was 90 and the “Plant response rating, Barnyardgrass” value [7, 21] was 90. For the same compound, the “Plant response rating, Wheat” value [8, 20] was 30, the “Plant response rating, Wheat” value [8, 21] was 20 and the “Plant response rating, Ducksalad” value [9, 17] was 0. The “Plant response rating, Ducksalad” value [9, 18] was 0, the “Plant response rating, Ducksalad” value [9, 19] was 50 and the “Plant response rating, Ducksalad” value ([9]; 250 g ai/ha, scale 0 to 100) was 85. For the same compound, the “Plant response rating, Barnyardgrass” value [10, 17] was 0, the “Plant response rating, Barnyardgrass” value [10, 18] was 0 and the “Plant response rating, Barnyardgrass” value [10, 19] was 0. For the same compound, the “Plant response rating, Barnyardgrass” value ([10]; 250 g ai/ha, scale 0 to 100) was 0, the “Plant response rating, Corn” value [11, 20] was 0 and the “Plant response rating, Corn” value [11, 21] was 0. The “Plant response rating, Sedge, Umbrella” value [12, 17] was 0, the “Plant response rating, Sedge, Umbrella” value [12, 18] was 0 and the “Plant response rating, Sedge, Umbrella” value [12, 19] was 0. The “Plant response rating, Sedge, Umbrella” value ([12]; 250 g ai/ha, scale 0 to 100) was 0.

— patent US10294202B2, “Pyrrolidinones as herbicides” (FMC Corporation, priority 2013, dated 2019)
